In one assay the target is BTK (Homo sapiens (Human), UniProt Q06187). Put plainly: BTK enzyme experiment (ADP-Glo kinase assay). The following applies: 10 nM BTK, ATP 125 μM, Poly(Glu4, Tyr1), 90 minutes at 20° C.; read-out: BTK(WT) IC50. It is filed as biochemical. The method, then: (§1) A 3-fold gradient concentration stock solution of 1000× compound was prepared using DMSO and diluted 100-fold to 10× compound stock solution using reaction buffer (50 mM HEPES, pH 7.5, 0.0015% Briji-35, 2 mM DTT, 10 mM MgCl2), and the 10× compound stock solution was transferred to a 384-well plate. Enzyme reactions were set up with BTK Kinase Enzyme System (Promega Catalog #V2941) or BTK (C481S) Kinase Enzyme System (Promega Catalog #VA7033). First, a 2× enzyme solution containing 10 nM BTK or 10 nM BTK C481S was prepared with reaction buffer and added to the plate, and incubated with the compound for 10 minutes. […] Finally, the kinase activity was detected according to the experimental steps provided by ADP-Glo™ kinase Assay Kit (Promega, #V9101), and finally the luminescence chemiluminescence value was read. DMSO was used as the maximum signal value, and adding no enzyme was used as the minimum signal value. The inhibition rate of the compound (%)=(maximum signal value−compound signal value)/(maximum signal value−minimum signal value)×100% was calculated. The compound gradient dilution concentration and the corresponding inhibition rate of the enzyme activity were fit by using XLFit four-parameter method, and IC50 value was calculated.
For orientation: ADP-Glo first removes unused ATP, then detects ADP through luciferase.

The target in another assay is BTK (C481S) (Homo sapiens (Human), UniProt Q06187, C481S). Put plainly: BTK C481S enzyme experiment (ADP-Glo kinase assay). It is filed as biochemical. Conditions: 10 nM BTK C481S, ATP 125 μM, Poly(Glu4, Tyr1), 90 minutes at 20° C. The method, then: as §1

The structures appear in SMILES notation.

BTK, sequence (Q06187 whole entry): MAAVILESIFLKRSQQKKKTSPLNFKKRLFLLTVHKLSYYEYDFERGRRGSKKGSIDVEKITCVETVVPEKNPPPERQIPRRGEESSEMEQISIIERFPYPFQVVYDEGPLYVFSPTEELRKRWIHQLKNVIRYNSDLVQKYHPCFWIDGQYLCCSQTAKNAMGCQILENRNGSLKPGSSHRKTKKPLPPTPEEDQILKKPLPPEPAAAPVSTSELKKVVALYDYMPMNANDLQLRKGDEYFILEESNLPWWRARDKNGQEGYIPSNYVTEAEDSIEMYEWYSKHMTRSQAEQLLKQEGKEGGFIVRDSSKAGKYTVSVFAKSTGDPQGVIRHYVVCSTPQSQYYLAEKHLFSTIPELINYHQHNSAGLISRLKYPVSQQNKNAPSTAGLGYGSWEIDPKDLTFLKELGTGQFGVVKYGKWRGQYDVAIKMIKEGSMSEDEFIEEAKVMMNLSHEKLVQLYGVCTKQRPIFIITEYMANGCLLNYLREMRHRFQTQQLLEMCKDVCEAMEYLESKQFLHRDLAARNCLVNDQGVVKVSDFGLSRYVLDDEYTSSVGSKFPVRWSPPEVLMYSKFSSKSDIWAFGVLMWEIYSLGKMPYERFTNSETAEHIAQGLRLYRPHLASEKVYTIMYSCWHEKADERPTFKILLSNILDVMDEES
BTK (C481S), sequence (Q06187 whole entry C481S): as the sequence (Q06187 whole entry) above, with C481S counted along it

Usually IC50 stands for the concentration that inhibits the measured activity by half. For the compound `COC[C@]1(C)Nc2c(cnc3[nH]cc(C(=O)c4ccccc4Br)c23)NC1=O` [Z86, (S)-9-(2-bromobenzoyl)-2-(methoxymethyl)-2-methyl-1,2,4,7-tetrahydro-3H-pyrrolo[3′,2′:5,6]pyrido[3,4-b]pyrazin-3-one], the IC50 on BTK turned out to be 16 nM; against BTK (C481S), 9.7 nM.
The matching figures for `COC[C@]1(C)Nc2c(cnc3[nH]cc(C(=O)c4ccccc4)c23)NC1=O` [Z89, (S)-9-benzoyl-2-(methoxymethyl)-2-methyl-1,2,4,7-tetrahydro-3H-pyrrolo[3′,2′:5,6]pyrido[3,4-b]pyrazin-3-one]: 23.4 nM and 7.5 nM.
In the case of `COC[C@]1(C)Nc2c(cnc3[nH]cc(C(=O)c4sccc4Cl)c23)NC1=O` [Z103, (S)-9-(3-chlorothiophene-2-carbonyl)-2-(methoxymethyl)-2-methyl-1,2,4,7-tetrahydro-3H-pyrrolo[3′,2′:5,6]pyrido[3,4-b]pyrazin-3-one], the IC50 at BTK came out at 20.1 nM; against BTK (C481S) it was 9.8 nM.
The matching figures for `COC[C@]1(C)Nc2c(cnc3[nH]cc(C(=O)c4ccc(OC)cc4Cl)c23)NC1=O` [Z113, (S)-9-(2-chloro-4-methoxybenzoyl)-2-(methoxymethyl)-2-methyl-1,2,4,7-tetrahydro-3H-pyrrolo[3′,2′:5,6]pyrido[3,4-b]pyrazin-3-one]: 61.8 nM and 61.1 nM.
For the compound `COC[C@]1(C)Nc2c(cnc3[nH]cc(C(=O)c4ccc(OC5CCCC5)cc4Cl)c23)NC1=O` [Z122, (S)-9-(2-chloro-4-(cyclopentyloxy)benzoyl)-2-(methoxymethyl)-2-methyl-1,2,4,7-tetrahydro-3H-pyrrolo[3′,2′:5,6]pyrido[3,4-b]pyrazin-3-one], the figures for the IC50 at BTK and on BTK (C481S) were 64.1 nM and 70.5 nM, respectively.
For `COC[C@]1(C)Nc2c(cnc3[nH]cc(C(=O)c4ccc(Oc5ccccc5)cc4)c23)NC1=O` [Z125-1, (S)-2-(methoxymethyl)-2-methyl-9-(4-phenoxybenzoyl)-1,2,4,7-tetrahydro-3H-pyrrolo[3′,2′:5,6]pyrido[3,4-b]pyrazin-3-one] the same measures were 28.2 nM and 29.1 nM.
Regarding `COC[C@]1(C)Nc2c(cnc3[nH]cc(C(=O)c4ccc(Oc5cc(C)cc(C)n5)cc4Cl)c23)NC1=O` [Z127-1, (S)-9-(2-chloro-4-((4,6-dimethylpyridin-2-yl)oxy)benzoyl)-2-(methoxymethyl)-2-methyl-1,2,4,7-tetrahydro-3H-pyrrolo[3′,2′:5,6]pyrido[3,4-b]pyrazin-3-one], the results for the IC50 on BTK and on BTK (C481S) were 29.1 nM and 31.5 nM, respectively.
`COC[C@]1(C)Nc2c(cnc3[nH]cc(C(=O)c4ncc(Oc5ccccc5)cc4Cl)c23)NC1=O` [Z133]: the IC50 came out at 28.8 nM at BTK and 38.4 nM against BTK (C481S).
In the case of `COC[C@]1(C)Nc2c(cnc3[nH]cc(C(=O)c4ccc(Oc5cc(C)nc(Cl)c5)cc4Cl)c23)NC1=O` [Z135, (S)-9-(2-chloro-4-((2-chloro-6-methylpyridin-4-yl)oxy)benzoyl)-2-(methoxymethyl)-2-methyl-1,2,4,7-tetrahydro-3H-pyrrolo[3′,2′:5,6]pyrido[3,4-b]pyrazin-3-one], the figures for the IC50 at BTK and on BTK (C481S) were 58.9 nM and 88.8 nM, respectively.
With `COCCN1C(=O)[C@](C)(COC)Nc2c1cnc1[nH]cc(C(=O)c3ccc(Oc4ccccc4)cc3Cl)c21` [Z142], the IC50 is 35.2 nM at BTK and 19.7 nM against BTK (C481S).
For `[2H]C([2H])([2H])OC[C@]1(C)Nc2c(cnc3[nH]cc(C(=O)c4ccc(Cn5cccn5)cc4Cl)c23)NC1=O` [Z170, (S)-9-(4-((1H-pyrazol-1-yl)methyl)-2-chlorobenzoyl)-2-((methoxy-d3)methyl)-2-methyl-1,2,4,7-tetrahydro-3H-pyrrolo[3′,2′:5,6]pyrido[3,4-b]pyrazin-3-one] the same measures were 28.4 nM and 36.5 nM.
For `[2H]C([2H])([2H])OC[C@]1(C)Nc2c(cnc3[nH]cc(C(=O)c4ccc(Cn5ccc(C)n5)cc4Cl)c23)NC1=O` [Z174, (S)-9-(2-chloro-4-((3-methyl-1H-pyrazol-1-yl)methyl)benzoyl)-2-((methoxy-d3)methyl)-2-methyl-1,2,4,7-tetrahydro-3H-pyrrolo[3′,2′:5,6]pyrido[3,4-b]pyrazin-3-one] the same measures were 76.6 nM and 115 nM.
For `[2H]C([2H])([2H])OC[C@]1(C)Nc2c(cnc3[nH]cc(C(=O)c4ccc(Cn5nccc5C)cc4Cl)c23)NC1=O` [Z175, (S)-9-(2-chloro-4-((5-methyl-1H-pyrazol-1-yl)methyl)benzoyl)-2-((methoxy-d3)methyl)-2-methyl-1,2,4,7-tetrahydro-3H-pyrrolo[3′,2′:5,6]pyrido[3,4-b]pyrazin-3-one] the same measures were 74.4 nM and 76.5 nM.
Consider `COC[C@]1(C)Nc2c(cnc3[nH]cc(C(=O)c4ccc(Oc5cc(C)cc(C)n5)cc4F)c23)NC1=O` [Z189-1, (S)-9-(4-((4,6-dimethylpyridin-2-yl)oxy)-2-fluorobenzoyl)-2-(methoxymethyl)-2-methyl-1,2,4,7-tetrahydro-3H-pyrrolo[3′,2′:5,6]pyrido[3,4-b]pyrazin-3-one], for which the values for the IC50 at BTK and against BTK (C481S) were 50.4 nM and 60.3 nM, respectively.
The matching figures for `[2H]C([2H])([2H])N1C(=O)[C@](C)(COC)Nc2c1cnc1[nH]cc(C(=O)c3ccc(Oc4ccccc4)cc3Cl)c21` [Z190, (S)-9-(2-chloro-4-phenoxybenzoyl)-2-(methoxymethyl)-2-methyl-4-(methyl-d3)-1,2,4,7-tetrahydro-3H-pyrrolo[3′,2′:5,6]pyrido[3,4-b]pyrazin-3-one]: 16.3 nM and 20.1 nM.
For `[2H]C([2H])([2H])OC[C@]1(C)Nc2c(cnc3[nH]cc(C(=O)c4ccc(Oc5ccccc5)cc4Cl)c23)N(C([2H])([2H])[2H])C1=O` [Z193, (S)-9-(2-chloro-4-phenoxybenzoyl)-2-((methoxy-d3)methyl)-2-methyl-4-(methyl-d3)-1,2,4,7-tetrahydro-3H-pyrrolo[3′,2′:5,6]pyrido[3,4-b]pyrazin-3-one] the same measures were 19.1 nM and 21.9 nM.
For `COC[C@]1(C)Nc2c(cnc3[nH]cc(C(=O)c4ccc(OC)c(F)c4Cl)c23)NC1=O` [Z194, (S)-9-(2-chloro-3-fluoro-4-methoxybenzoyl)-2-(methoxymethyl)-2-methyl-1,2,4,7-tetrahydro-3H-pyrrolo[3′,2′:5,6]pyrido[3,4-b]pyrazin-3-one] the same measures were 47.3 nM and 77.4 nM.
Consider `COC[C@]1(C)Nc2c(cnc3[nH]cc(C(=O)c4c(F)cccc4Cl)c23)NC1=O` [Z196, (S)-9-(2-chloro-6-fluorobenzoyl)-2-(methoxymethyl)-2-methyl-1,2,4,7-tetrahydro-3H-pyrrolo[3′,2′:5,6]pyrido[3,4-b]pyrazin-3-one], for which the values for the IC50 on BTK and on BTK (C481S) were 26.4 nM and 25.8 nM, respectively.
For `CC1(C)COc2cnc3[nH]cc(C(=O)c4ccccc4Cl)c3c2N1` [Z198, (2-chlorophenyl)(2,2-dimethyl-1,2,3,7-tetrahydropyrrolo[3′,2′:5,6]pyrido[3,4-b][1,4]oxazin-9-yl)methanone] the same measures were 17.4 nM and 15.1 nM.
Consider `COC[C@]1(C)Nc2c(cnc3[nH]cc(C(=O)c4ccccc4Cl)c23)N=C1SC` [Z199, (S)-(2-chlorophenyl)(2-(methoxymethyl)-2-methyl-3-(methylthio)-2,7-dihydro-1H-pyrrolo[3′,2′:5,6]pyrido[3,4-b]pyrazin-9-yl)methanone], for which the IC50 on BTK amounted to 42.6 nM; at BTK (C481S), 23.2 nM.

The record behind these values is US20240360154A1, “AROYL SUBSTITUTED TRICYCLIC COMPOUND, PREPARATION METHOD THEREFOR AND USE THEREOF” (GENFLEET THERAPEUTICS (SHANGHAI) INC., priority 2020, published 2024).
